Results from patent publication US5965605A, “Inhibition of the binding human IgE to its receptor by tetracyclic compounds for the alleviation of IgE-mediated immune response” (Heska Corporation, priority 1997, dated 1999).

Key:
[1] = Pharmacokinetic studies in rats; assay type: in vivo; settings: blood, iv, rat, 10 mg/kg I.V.
Procedure: The pharmacokinetic (PK) profile of the compounds following systemic I.V. injection was measured. Compound 1 was formulated in PBS and given to a rat at 10 mg/kg. Blood was drawn from the rat at different time points after injection. The concentrations of compound 1 in the blood were measured by HPLC after separation from serum.

[2] = Toxicity studies in mice, single I.V. injection; assay type: in vivo
Text: The potential toxic side effects following systemic administration was investigated by administering compound 1 in PBS to mice in single I.V. injection.

[3] = molecular target: T1, human FcεRI transfected rat basophil leukemia cell line, SX38 (Homo sapiens, UniProt P01854+P12319); assay: Cell-based IgE-FcεRI binding assay; settings: for IC50: read-out: IC50, inhibition of IgE-FcεRI binding (converted)
T1 construct: biotinylated recombinant IgE (mouse VH, human Cε, J558L)
T1 sequence (P12319 26-257): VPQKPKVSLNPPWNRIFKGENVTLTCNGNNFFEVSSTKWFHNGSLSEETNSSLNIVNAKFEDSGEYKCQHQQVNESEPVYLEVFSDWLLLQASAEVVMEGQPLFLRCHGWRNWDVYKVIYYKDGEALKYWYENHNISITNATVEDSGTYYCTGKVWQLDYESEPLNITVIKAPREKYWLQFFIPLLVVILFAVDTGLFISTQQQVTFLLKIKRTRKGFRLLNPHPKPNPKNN
T1 sequence (P01854 whole entry): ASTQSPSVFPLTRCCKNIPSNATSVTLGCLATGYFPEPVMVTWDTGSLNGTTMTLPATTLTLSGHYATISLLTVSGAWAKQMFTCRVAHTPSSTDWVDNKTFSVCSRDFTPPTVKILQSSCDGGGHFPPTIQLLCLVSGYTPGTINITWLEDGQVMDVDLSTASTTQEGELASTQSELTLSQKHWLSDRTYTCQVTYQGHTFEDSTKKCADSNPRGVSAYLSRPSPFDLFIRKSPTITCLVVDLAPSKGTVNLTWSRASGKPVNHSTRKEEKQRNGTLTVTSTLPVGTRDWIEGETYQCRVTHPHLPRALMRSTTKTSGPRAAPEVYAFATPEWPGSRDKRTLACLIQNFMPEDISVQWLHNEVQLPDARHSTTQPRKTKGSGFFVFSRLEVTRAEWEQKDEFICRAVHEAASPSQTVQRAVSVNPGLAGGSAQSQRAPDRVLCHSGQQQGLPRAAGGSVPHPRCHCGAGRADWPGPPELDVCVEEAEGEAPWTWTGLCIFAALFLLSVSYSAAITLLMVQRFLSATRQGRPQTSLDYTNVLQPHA
T1 sequence (Q01362 whole entry partner): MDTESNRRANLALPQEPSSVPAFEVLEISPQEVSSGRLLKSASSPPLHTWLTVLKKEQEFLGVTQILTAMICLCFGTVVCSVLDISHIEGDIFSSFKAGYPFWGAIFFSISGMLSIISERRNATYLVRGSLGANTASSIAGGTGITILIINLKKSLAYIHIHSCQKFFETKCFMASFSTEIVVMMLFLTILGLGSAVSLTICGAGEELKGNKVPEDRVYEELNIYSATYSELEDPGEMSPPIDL
T1 sequence (P30273 19-86 partner): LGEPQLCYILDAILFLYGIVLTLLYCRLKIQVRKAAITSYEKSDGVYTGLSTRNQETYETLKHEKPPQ
Procedure: About 1×10^5 cells in 50 μl of medium were seeded in the wells of 96-well flat bottom plates. […] Forty microliters of this solution was applied to each well and incubated at room temperature for two hours. The plates were washed three times with PBS, and 40 μl of avidin-horseradish peroxidase, at 1 μg/ml in PBS, was added to each well. After an additional hour of incubation at room temperature, the plate was again washed three times with PBS. The subsequent steps for the measurement of the bound IgE were performed as described in the protein-based IgE-FcεRI binding assay.

IgE/FcεRI [4] = assay: in situ rat passive cutaneous anaphylaxis (PCA) model; assay type: in vivo, Sprague Dawley rats; settings: for Percent inhibition of PCA reaction: injected into skin with 0.03 μg/ml IgE; for IC50, inhibition of anaphylaxis in the rat PCA model: in situ rat PCA model
Text: The tetracyclic compounds that antagonized the IgE and FcεRIα interaction identified in the protein-based assay were further evaluated in the rat PCA model (Haak-Frendscho, et al., J. Immunol., 151:351-358, 1993). […] Mouse anti-dinitrophenyl IgE (Sigma ImmunoChemicals, St. Louis, Mo.) is a bifunctional antibody which binds to dinitrophenyl as well as FcεRI. Exposure of anti-dinitrophenyl-IgE to dinitrophenyl-albumin causes aggregation of the antibody and induces the IgE mediated immune response. […] Fifty microliters of these solutions were injected into the skin of the shaved back of Sprague Dawley rats (Taconic, Germantown, N.Y.). As a positive control, the same amount of anti-dinitrophenyl-IgE in the absence of a tetracyclic compound was injected into the skin of the same rat at a different site. After a period of two hours the sensitized rats were challenged with an intravenous injection of 1 mg/ml of dinitrophenyl-human albumin (Sigma ImmunoChemicals, St. Louis, Mo.) in 1% Evan's blue dye. Thirty minute later, the rats were killed and skinned. Percent inhibition was calculated by the reduction of blue dye at the tetracyclic compound treated injection sites versus the positive control sites.

[5] = molecular target: human IgE / soluble FcεRI α (Fc-FcεRIα fusion protein); assay: Protein-based IgE-FcεRI binding assay (ELISA); settings: for % Inhibition of IgE/FcεRI binding: 10 μg/ml
Procedure: A protein-based in vitro assay was developed to screen for compounds which block the interaction between IgE and FcεRI. This assay used human IgE and soluble FcεRI α proteins which were prepared as outlined below. As will be described more below, the assay was performed in the format of an Enzyme-linked ImmunoSorbent Assay (ELISA) as follows. ELISA plates were prepared by coating 96-well plates with soluble FcεRI α protein. In the binding step, biotinylated IgE was captured by the FcεRI α in the wells. In the detection step, bound biotinylated IgE was quantitated by the addition of avidin-horseradish peroxidase and a chromogenic substrate. For the screening of antagonists, the IgE and FcεRI binding assay was performed in the presence of various testing compounds. Compounds that inhibit the interaction between IgE and FcεRI α could be readily detected. This assay was then applied to screen tens of thousand of compounds from a diversified chemical library.
To provide IgE for the ELISA, a recombinant IgE DNA construct was built by ligating a mouse heavy chain variable region, Vh, gene fragment to a human IgE heavy chain, Cε.
The growth medium collected from the above transfected cell culture was concentrated 30-50 times by membrane filtration (Filtron, Northboro, Mass.) and passed through a column of NIP (Genosys Biotechnologies Inc.)-bovine serum albumin (BSA) sepharose. The bound IgE was subsequently eluted from NIP-BSA sepharose using 5 M MgCl2. The eluate was then dialyzed in phosphate buffered saline (PBS). The integrity of the purified IgE was analyzed by SDS-polyacrylamide gel electrophoresis.
To provide soluble FcεRI α protein for ELISA, a DNA construct was made to produce soluble FcεRI α as a protein fused to the Fc region of the human immunoglobulin G heavy chain. The protein product of the construct will he termed Fc-FcεRIα.
The culture media of the cells producing Fc-FcεRI α fusion protein was collected and passed through a Protein A Sepharose column (Repligen, Cambridge, Mass.). The bound fusion protein was eluted from the Protein A Sepharose in 100 mM sodium citrate buffer (pH 4.0) and immediately neutralized with 0.1 volume of 1M Tris-hydrochloride, pH 8. The integrity of the purified protein was analyzed by SDS-polyacrylamide gel electrophoresis.
Fc-FcεRIα was diluted to 0.4 μg/ml in PBS and was used to coat 96-well plates. One hundred microliters of the FcεRIα fusion protein was added to wells of the 96-well plates, and the plate was incubated at 4° C. for 20 hr and washed twice with PBS/T (PBS containing 0.05% Tween-20). The non-specific binding sites in each of the wells were blocked with 200 μl of blocking buffer (PBS containing 1% of BSA and 1% of goat serum) at 37° C. for 2 hr. The plates were then washed 4 times with PBS/T and stored frozen at -20° C. The plates were thawed at room temperature just before use.
IgE was biotinylated as follows. Ten microliters of a 40 mg/ml sulfosuccimidyl 6-(biotinamido)-hexanolate (Pierce, Rockford, Ill.) in dimethylsulphoxide was added to 1 ml of 1 mg/ml IgE in sodium bicarbonate buffer, pH 8.0. After a 4 hr incubation at room temperature, the biotinylation was terminated by the addition of 25 μl of 2M Tris hydrochloride, pH 8 and the resulting biotinylated IgE was diayzed against PBS.
One hundred microliter of this solution was added to wells of a 96-well plate which had been previously coated with Fc-FcεRIα. […] After an additional one hour incubation at room temperature,the plate was again washed four times with PBS/T. The reaction with Avidin-HRP was developed by the addition of 100 μl of K-blue (Elisa Technologies, Lexington, Ky.) to each well.

IgE/FcεRI [6] = assay: Systemic PCA model in rats; assay type: in vivo, Sprague Dawley rats
Procedure: The compounds that have activity in the in situ PCA model were tested in the systemic PCA model. This model measures usefulness of a tetracyclic compound for blocking PCA in rats when the tetracyclic compound is administered systemically and the rats were sensitized with IgE at the skin. In this example, compound I was administrate first into the rats by intravenous (I.V.) injection, and immediately thereafter 0.03 μg/ml of anti-dinitrophenyl/IgE was injected into the skin of the shaved back of Sprague Dawley rats. After a sensitization period of 1 hr, the sensitized rats were challenged with an intravenous injection of 1 mg/ml of dinitrophenyl human albumin in 1% Evan's blue dye. Thirty minutes later, the rats were killed and skinned. As a positive control, PBS, lacking a tetracyclic compound, was administered by I.V. injection into Sprague Dawley rats, and the rats were treated in the same manner as the test rats. Percent inhibition of PCA obtained in this model is calculated by determining reduction of blue dye extracted from the tetracyclic compound treated rats compared to the positive control rats.

[7] = test system: rat basophil leukemia cells (RBL cells); assay: Hexosaminidase release assay; assay type: cell-based; settings: read-out: % Inhibition of IgE mediated hexosaminidase release
Procedure: Tetracyclic Compounds that antagonized the IgE and FcεRIα interaction identified in the protein-based assay and cell-based assay were further evaluated in a screening assay using rat basophil leukemia cells (RBL cells). […] About 2×10^5 RBL cells were seeded per well in a 96 well plate and were incubated overnight at 37° C. A mixture of biotinylated mouse IgE (100 μl of 0.125 μg/ml) and a tetracyclic compound, e.g. compound 2, in medium was added lo each well and was incubated for 1 hour at 37° C. The cells were then washed twice with triggering buffer (119 mM NaCl, 5 mM KCl, 25 mM disodium PIPES, 5.6 mM glucose, 1 mM CaCl2, 0.1% BSA), and pre-incubated in triggering buffer for 10 min. at 37° C. One hundred microliters of 0.02 μg/ml streptavidin in triggering buffer was then added and the cells were incubated for an additional 30 min. at 37° C. The 96 well plate is then centrifuged at 4° C. to pellet all cells, and 80 μl of the supernatant is harvested on ice and transferred to another 96 well plate. As a positive control, two aliquots of about 2×10^5 RBL cells were lysed with 100 μl of 0.2% Triton in triggering buffer, and the supernatant was harvested after centrifugation to pellet all cell debris. Addition of streptavidin to RBL cells, which have been incubated with biotinylated IgE will trigger the release of IgE mediated allergy mediators, such as histamine. Antagonization of IgE/FcεRI binding by a tetracyclic compound results in the release of a reduced level of allergy mediators. The release of allergy mediators was quantitated by assaying for the presence of the enzyme hexosaminidase in the supernatant The concentration of hexosaminidase was determined by hydrolysis of its substrate, p-NAG (p-nitrophenyl-N-acetate-[…], Sigma Chemical Co.) in citrate buffer (pH 4.5) at 37° C. for 1 hr.

| SMILES | inhibition at 10 µg/mL ([3]; 10 μg/ml) [%] | IC50 [3] [µM] | IC50, inhibition of anaphylaxis in the rat PCA model (IgE/FcεRI [4]) [µg/mL] | IC50, inhibition of IgE/FcεRI binding [5] [µg/mL] | % Inhibition of IgE/FcεRI binding [5] [%] | further results |
| --- | --- | --- | --- | --- | --- | --- |
| O=C(O)c1c(Cl)c(Cl)c(Cl)c(Cl)c1-c1c2cc(I)c(=O)c(I)c-2oc2c(I)c(O)c(I)cc12 (single isomer, unassigned) [Compound 1] | 46 | 12 | 0.46 | 0.34 | 98 | concentration at 0 h ([1]; 0 minute): 83000 ng/mL; concentration at 0.25 h ([1]; 15 minute): 2510 ng/mL; concentration at 0.5 h ([1]; 30 minute): 902 ng/mL; concentration at 1 h ([1]; 60 minute): 720 ng/mL; concentration at 2 h ([1]; 120 minute): 625 ng/mL; concentration at 4 h ([1]; 240 minute): 512 ng/mL; No. of Death ([2]; 400 mg/kg I.V., single injection, 3 mice): 0; LD50 ([2]; mouse, in vivo, iv, mice, single I.V. injection in PBS): > 400 mg/kg; Percent inhibition of PCA reaction (IgE/FcεRI [4]; 0.25 μg/ml): 5%; Percent inhibition of PCA reaction (IgE/FcεRI [4]; 0.5 μg/ml): 66%; Percent inhibition of PCA reaction (IgE/FcεRI [4]; 1 μg/ml): 100%; % Inhibition of PCA (IgE/FcεRI [6]; 47 mg/kg I.V.): 2.0%; % Inhibition of PCA (IgE/FcεRI [6]; 70 mg/kg I.V.): 64.0%; % Inhibition of PCA (IgE/FcεRI [6]; 94 mg/kg I.V.): 104.0%; % Inhibition of PCA (IgE/FcεRI [6]; 114 mg/kg I.V.): 102.0% |
| O=C(O)c1c(Cl)c(Cl)c(Cl)c(Cl)c1-c1c2cc(I)c(=O)c(I)c-2oc2c(I)c(O)c(I)cc12 (single isomer, unassigned) [Compound 2] |  | 5.65 | 1.10 | 0.38 | 100 | % Inhibition of IgE-FcεRI binding ([3]; 10 μg/ml): 62%; inhibition at 0.1 µg/mL ([7]; 0.1 μg/ml): 11%; inhibition at 0.62 µg/mL ([7]; 0.62 μg/ml): 19%; inhibition at 1.25 µg/mL ([7]; 1.25 μg/ml): 75%; inhibition at 2.5 µg/mL ([7]; 2.5 μg/ml): 96%; inhibition at 5 µg/mL ([7]; 5 μg/ml): 94% |
| CCOC(=O)c1c(Cl)c(Cl)c(Cl)c(Cl)c1-c1c2cc(Br)c(=O)c(Br)c-2oc2c(Br)c(O)c(Br)cc12 [Compound 3] |  |  |  | 4.30 | 90 |  |
| CCOC(=O)c1ccccc1-c1c2cc(Br)c(=O)c(Br)c-2oc2c(Br)c(O)c(Br)cc12 [Compound 4] | 93 | 5.33 | 2.90 | 0.82 | 98 |  |
| O=C(O)c1c(Cl)ccc(Cl)c1-c1c2cc(I)c(=O)c(I)c-2oc2c(I)c(O)c(I)cc12 [Compound 5] |  |  |  | 0.56 | 99 |  |
| O=C(O)c1c(Cl)c(Cl)c(Cl)c(Cl)c1-c1c2ccc(=O)c(O)c-2oc2c(O)c(O)ccc12 [Compound 6] |  |  |  | 0.63 | 83 |  |
| COC(=O)c1ccccc1-c1c2cc(Br)c(=O)c(Br)c-2oc2c(Br)c(O)c(Br)cc12 [Compound 7] | 84 | 6.65 |  | 1.46 | 87 |  |
| O=c1c(Br)cc2c(-c3ccccc3S(=O)(=O)O)c3cc(Br)c(O)c(O)c3oc-2c1O [Compound 8] |  |  |  | 0.65 | 87 |  |
